From patent US10550111B2, “Pyrimidine urea compound containing isoxazolines and use thereof” (SHENYANG SINOCHEM AGROCHEMICALS R&D CO., LTD, priority 2014, dated 2020)

Key:
[1] = tested on: Abutilon theophrasti Medic.; assay: Bioassay of herbicidal activity in greenhouse (further screening); assay type: in vivo
Summary of the method: (§1)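 Pre- and post-emergence greenhouse test. Track sprayer, 500 L/hm^2, 1.95 kg/cm^2; EC formulation. Post-em at 2–3 leaves (grass), 2–4 leaves (broad-leaf). Readout: visual % inhibition.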

[2] = tested on: Echinochloa crus-galli (L.) Beauv.; assay: as above; assay type: in vivo
Summary of the method: as §1

[3] = tested on: Setaria glauca (L.) Beauv.; assay: as above; assay type: in vivo
Summary of the method: as §1

[4] = tested on: Zinnia elegans Jacq.; assay: as above; assay type: in vivo
Summary of the method: as §1

[5] = tested on: broad-leaf weeds and grass weeds; assay: General screening of herbicidal activity in greenhouse; assay type: in vivo; conditions: 1000 g a.i./hm^2;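 note: 0 means no visible effect and 100 means all weeds dead or not emerged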
Summary of the method: as §1

[6] = tested on: Arthraxon hispidus (Thunb.) Makino; assay: Weed spectrum study in greenhouse; assay type: in vivo
Description: (§2) Seeds of monocotyledonous and dicotyledonous weeds were sown in nutrition soil in paper pot (7 cm diameter), covered with soil in 1 cm and grown in the greenhouse under good growth conditions (temperature, atmospheric humidity, water supply). The compounds of the present invention as emulsifiable concentrate, were applied in pre-emergence and post-emergence treatment by track sprayer (Engineer Research Ltd., pressure 1.95 kg/cm^2, volume 500 L/hm^2, track speed 1.48 km/h). Pre-emergence treatment was conducted after seeding 24 hours and post-emergence treatment was done when the respective weeds reached predetermined leaf stage (grass weed 2- to 3-leaf stage, broad-leaf weed 2- to 4-leaf stage), the state of growth of the respective weeds were visually observed to determine the growth inhibition rate (%) in accordance with the following evaluation standard.
(§3) Growth inhibition rate (%): 0=no discernible action: 100=all weeds dead or not emerged.
(§4) The method is as example 18.

[7] = tested on: Cyperus difformis L.; assay: Weed spectrum study in greenhouse; assay type: in vivo
Description: as §2, §3, §4

[8] = tested on: Cyperus glomeratus L.; assay: Weed spectrum study in greenhouse; assay type: in vivo
Description: as §2, with “([…]),” for “(grass weed 2- to 3-leaf stage, broad-leaf weed 2- to 4-leaf stage),”
as §3, §4

[9] = tested on: Digitaria sanguinalis (L.); assay: Weed spectrum study in greenhouse; assay type: in vivo
Description: as §2, with “([…],” for “(grass weed 2- to 3-leaf stage,”
as §3, §4

[10] = tested on: Amaranthus retroflexus L.; assay: Weed spectrum study in greenhouse; assay type: in vivo
Description: as §2, with “[…]),” for “broad-leaf weed 2- to 4-leaf stage),”
as §3, §4

[11] = tested on: grass weed; assay: Field trial, weed control in orchard (non-cultivated land); assay type: in vivo, Digitaria sanguinalis (L.) Scop.
Procedure: (§5) The field trial was conducted in an orchard located at Liaoyang city, Liaoning province, China; the orchard planted mainly apple trees and almond trees, plum trees and pear trees as well, weeding control were conducted three times one year by application of paraquat. Weeds were distributed uniformity and moderate density, mainly of broad-leaf weeds including Conyza canadensis (L.)Cronq., Sonchus brachyotus DC., Polygonum aviculare L., Humulus scandens (Lour.) Merr., Ixeridium sonchifolium (Maxim.) Shih, Galium aparine L. var. tenerum Gren. et (Godr.) Rebb., Rumex japonicus Houtt. and Metaplexis japonica (Thunb.) Makino, partly of grass weed was Digitaria sanguinalis (L.) Scop., average height range was between 30 and 40 cm. sprayer was knapsack hand-operated sprayer(AGROLEX HD400) produced by AGROLEx PTE Ltd., spray volume was 675 L/hm^2, processing date was Jul. 3, 2015. On the 15th day after application, weeds were visually observed to determine the growth inhibition rate (%).

[12] = tested on: broad-leaf weeds; assay: as above; assay type: in vivo
Procedure: as §5

[13] = tested on: weeds; assay: as above; assay type: in vivo
Procedure: as §5

[14] = pre-emergence, dose 600 g a.i./hm^2
[15] = dose 60 g a.i./hm^2, 15th day after application
[16] = dose 120 g a.i./hm^2, 15th day after application
[17] = dose 180 g a.i./hm^2, 15th day after application
[18] = dose 240 g a.i./hm^2, 15th day after application
[19] = dose 300 g a.i./hm^2, 15th day after application

## CCOC(=O)C1(C)CC(c2cc(-n3c(=O)cc(C(F)(F)F)n(C)c3=O)c(F)cc2Cl)=NO1 (stereo not drawn) [Compound 6]
[1]; dose 7.5 g a.i./hm^2
  Growth inhibition rate, Post-emergence treatment, Abutilon theophrasti Medic.: 100%
[1]; dose 15 g a.i./hm^2
  Growth inhibition rate, Post-emergence treatment, Abutilon theophrasti Medic.: 100%
[1]; dose 30.0 g a.i./hm^2
  Growth inhibition rate, Post-emergence treatment, Abutilon theophrasti Medic.: 100%
[1]; dose 60.0 g a.i./hm^2
  Growth inhibition rate, Post-emergence treatment, Abutilon theophrasti Medic.: 100%
[1]; dose 120.0 g a.i./hm^2
  Growth inhibition rate, Post-emergence treatment, Abutilon theophrasti Medic.: 100%
[1]; dose 600 g a.i./hm^2
  Growth inhibition rate, Post-emergence treatment, Abutilon theophrasti Medic.: 100%
[1]; [14]
  Growth inhibition rate, Pre-emergence treatment, Abutilon theophrasti Medic.: 100%
[2]; dose 7.5 g a.i./hm^2
  Growth inhibition rate, Post-emergence treatment, Echinochloa crus-galli (L.) Beauv.: 70%
[2]; dose 15 g a.i./hm^2
  Growth inhibition rate, Post-emergence treatment, Echinochloa crus-galli (L.) Beauv.: 98%
[2]; dose 30.0 g a.i./hm^2
  Growth inhibition rate, Post-emergence treatment, Echinochloa crus-galli (L.) Beauv.: 98%
[2]; dose 60.0 g a.i./hm^2
  Growth inhibition rate, Post-emergence treatment, Echinochloa crus-galli (L.) Beauv.: 100%
[2]; dose 120.0 g a.i./hm^2
  Growth inhibition rate, Post-emergence treatment, Echinochloa crus-galli (L.) Beauv.: 100%
[2]; dose 600 g a.i./hm^2
  Growth inhibition rate, Post-emergence treatment, Echinochloa crus-galli (L.) Beauv.: 100%
[2]; [14]
  Growth inhibition rate, Pre-emergence treatment, Echinochloa crus-galli (L.) Beauv.: 70%
[3]; dose 7.5 g a.i./hm^2
  Growth inhibition rate, Post-emergence treatment, Setaria glauca (L.) Beauv.: 85%
[3]; dose 15 g a.i./hm^2
  Growth inhibition rate, Post-emergence treatment, Setaria glauca (L.) Beauv.: 98%
[3]; dose 30.0 g a.i./hm^2
  Growth inhibition rate, Post-emergence treatment, Setaria glauca (L.) Beauv.: 95%
[3]; dose 60.0 g a.i./hm^2
  Growth inhibition rate, Post-emergence treatment, Setaria glauca (L.) Beauv.: 100%
[3]; dose 120.0 g a.i./hm^2
  Growth inhibition rate, Post-emergence treatment, Setaria glauca (L.) Beauv.: 100%
[3]; dose 600 g a.i./hm^2
  Growth inhibition rate, Post-emergence treatment, Setaria glauca (L.) Beauv.: 100%
[3]; [14]
  Growth inhibition rate, Pre-emergence treatment, Setaria glauca (L.) Beauv.: 55%
[4]; dose 7.5 g a.i./hm^2
  Growth inhibition rate, Post-emergence treatment, Zinnia elegans Jacq.: 95%
[4]; dose 15 g a.i./hm^2
  Growth inhibition rate, Post-emergence treatment, Zinnia elegans Jacq.: 98%
[4]; dose 30.0 g a.i./hm^2
  Growth inhibition rate, Post-emergence treatment, Zinnia elegans Jacq.: 100%
[4]; dose 60.0 g a.i./hm^2
  Growth inhibition rate, Post-emergence treatment, Zinnia elegans Jacq.: 100%
[4]; dose 120.0 g a.i./hm^2
  Growth inhibition rate, Post-emergence treatment, Zinnia elegans Jacq.: 100%
[4]; dose 600 g a.i./hm^2
  Growth inhibition rate, Post-emergence treatment, Zinnia elegans Jacq.: 100%
[4]; [14]
  Growth inhibition rate, Pre-emergence treatment, Zinnia elegans Jacq.: 55%
[5]
  pre-emergence and post-emergence herbicidal activity against broad-leaf weeds and grass weeds: good
[6]; dose 7.5 g a.i./hm^2
  Growth inhibition rate, Arthraxon hispidus (Thunb.) Makino (3-leaf stage): 60%
[6]; dose 15 g a.i./hm^2
  Growth inhibition rate, Arthraxon hispidus (Thunb.) Makino (3-leaf stage): 85%
[6]; dose 30 g a.i./hm^2
  Growth inhibition rate, Arthraxon hispidus (Thunb.) Makino (3-leaf stage): 90%
[6]; dose 60 g a.i./hm^2
  Growth inhibition rate, Arthraxon hispidus (Thunb.) Makino (3-leaf stage): 100%
[6]; dose 120 g a.i./hm^2
  Growth inhibition rate, Arthraxon hispidus (Thunb.) Makino (3-leaf stage): 100%
[7]; dose 7.5 g a.i./hm^2
  Growth inhibition rate, Cyperus difformis L. (4,5-leaf stage): 30%
[7]; dose 15 g a.i./hm^2
  Growth inhibition rate, Cyperus difformis L. (4,5-leaf stage): 60%
[7]; dose 30 g a.i./hm^2
  Growth inhibition rate, Cyperus difformis L. (4,5-leaf stage): 90%
[7]; dose 60 g a.i./hm^2
  Growth inhibition rate, Cyperus difformis L. (4,5-leaf stage): 95%
[7]; dose 120 g a.i./hm^2
  Growth inhibition rate, Cyperus difformis L. (4,5-leaf stage): 100%
[8]; dose 7.5 g a.i./hm^2
  Growth inhibition rate, Cyperus glomeratus L. (5-leaf stage): 80%
[8]; dose 15 g a.i./hm^2
  Growth inhibition rate, Cyperus glomeratus L. (5-leaf stage): 80%
[8]; dose 30 g a.i./hm^2
  Growth inhibition rate, Cyperus glomeratus L. (5-leaf stage): 90%
[8]; dose 60 g a.i./hm^2
  Growth inhibition rate, Cyperus glomeratus L. (5-leaf stage): 100%
[8]; dose 120 g a.i./hm^2
  Growth inhibition rate, Cyperus glomeratus L. (5-leaf stage): 100%
[9]; dose 7.5 g a.i./hm^2
  Growth inhibition rate, Digitaria sanguinalis (L.) (4,5-leaf stage): 80%
[9]; dose 15 g a.i./hm^2
  Growth inhibition rate, Digitaria sanguinalis (L.) (4,5-leaf stage): 90%
[9]; dose 30 g a.i./hm^2
  Growth inhibition rate, Digitaria sanguinalis (L.) (4,5-leaf stage): 100%
[9]; dose 60 g a.i./hm^2
  Growth inhibition rate, Digitaria sanguinalis (L.) (4,5-leaf stage): 100%
[9]; dose 120 g a.i./hm^2
  Growth inhibition rate, Digitaria sanguinalis (L.) (4,5-leaf stage): 100%
[10]; dose 7.5 g a.i./hm^2
  Growth inhibition rate, Amaranthus retroflexus L. (height 10-15 cm): 90%
[10]; dose 15 g a.i./hm^2
  Growth inhibition rate, Amaranthus retroflexus L. (height 10-15 cm): 98%
[10]; dose 30 g a.i./hm^2
  Growth inhibition rate, Amaranthus retroflexus L. (height 10-15 cm): 100%
[10]; dose 60 g a.i./hm^2
  Growth inhibition rate, Amaranthus retroflexus L. (height 10-15 cm): 100%
[10]; dose 120 g a.i./hm^2
  Growth inhibition rate, Amaranthus retroflexus L. (height 10-15 cm): 100%
[11]; [15]
  Growth inhibition rate (%) of grass weed: 61.7%
[11]; [16]
  Growth inhibition rate (%) of grass weed: 71.7%
[11]; [17]
  Growth inhibition rate (%) of grass weed: 83.3%
[11]; [18]
  Growth inhibition rate (%) of grass weed: 88.3%
[11]; [19]
  Growth inhibition rate (%) of grass weed: 94.3%
[12]; [15]
  Growth inhibition rate (%) of broad-leaf weeds: 85.0%
[12]; [16]
  Growth inhibition rate (%) of broad-leaf weeds: 93.3%
[12]; [17]
  Growth inhibition rate (%) of broad-leaf weeds: 94.3%
[12]; [18]
  Growth inhibition rate (%) of broad-leaf weeds: 97.0%
[12]; [19]
  Growth inhibition rate (%) of broad-leaf weeds: 92.7%
[13]; [15]
  Total growth inhibition rate (%) of weeds: 81.7%
[13]; [16]
  Total growth inhibition rate (%) of weeds: 91.7%
[13]; [17]
  Total growth inhibition rate (%) of weeds: 91.7%
[13]; [18]
  Total growth inhibition rate (%) of weeds: 93.3%
[13]; [19]
  Total growth inhibition rate (%) of weeds: 98.7%
